The values below come from doi:10.1101/2023.03.26.531482v1 (biorxiv, 2023).

Like-named read-outs stand apart in the source and are kept apart here.

Assay [1] has as its target MtDTBS (Mycobacterium tuberculosis dethiobiotin synthetase) (Mycobacterium tuberculosis, UniProt P9WPQ5).
Assay [2] concerns the target T1, MtDTBS (Mycobacterium tuberculosis dethiobiotin synthetase) (Mycobacterium tuberculosis, UniProt P9WPQ5).
T1 sequence (P9WPQ5 1-226): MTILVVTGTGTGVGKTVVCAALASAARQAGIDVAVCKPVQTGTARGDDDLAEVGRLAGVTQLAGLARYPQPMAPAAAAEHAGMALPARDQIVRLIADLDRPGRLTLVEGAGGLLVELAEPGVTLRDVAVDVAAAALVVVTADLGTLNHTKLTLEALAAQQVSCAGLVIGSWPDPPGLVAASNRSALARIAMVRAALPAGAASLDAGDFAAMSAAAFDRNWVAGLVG
The assay is described as follows: biochemical.

On to `c1ccc2c(c1)CCC1(C2)NCCc2[nH]cnc21` (stereo not shown) [B1], for which the Kd in assay [1] was 1240 ± 180 µM.

With `O=C1CC(c2ccc(F)cc2)Cc2[nH]ncc21` (stereo not shown) [B3], in assay [1], binding was put at a Kd of 620 ± 140 µM.

Molecule `O=C1CC[N+](=Cc2cccc(C(F)(F)F)c2)[N-]1` [B7] gave a Kd in assay [1] of 680 ± 30 µM.

As to `O=C1Oc2ccccc2C2(O)C3CCCC3C12` (stereo not shown) [compound 1, 9b-hydroxy-6b,7,8,9,9a,9b-hexahydrocyclopenta[3,4]cyclobuta[1,2-c]chromen-6(6aH)-one], binding in assay [2] was characterised by a dissociation constant (Kd) of 580 ± 40 µM.

What is called Kd is the free concentration of one partner at which half of the binding sites on the other are occupied at equilibrium, for simple one-to-one binding.
